# Test results reported in publication PMC12040169 (PLOS Biology, 2025).
# Test: in vitro
# Conditions: human, hela cells, % viability
row,SMILES,"viability at 28.5 h, 10 µM [%]"
1,O=S1(=O)CC(NCc2ccccc2)C(Nc2ccccc2)C1 (stereo not shown) [CBK265797],91.7
2,N#Cc1c(NC(=O)c2cc(S(=O)(=O)N3CCCCC3)c(Cl)cc2Cl)sc2c1CCCC2 [CBK264579],104
3,O=C(c1ccc(F)cc1)C1CCN(Cc2cccnc2)CC1 [CBK149118],101
4,O=C(c1nc2ccccc2s1)C1CCN(C(=O)c2ccco2)CC1 [CBK284234],83.6
5,O=C(c1ccco1)N1CCC(n2c(=O)oc3ccc(Cl)cc32)CC1 [CBK284343],103
6,NC(=O)c1cccc(-c2cnc(N)c(NCc3ccco3)n2)c1 [CBK063660],116
7,CCCn1cc(NC(=O)NC(CC)(CO)c2ccccc2)ccc1=O (stereo not shown) [CBK305060],104
8,Nc1cc(-c2ccccc2)nn1-c1ccc(C(=O)O)cc1 [CBK286565],84.9
9,O=C(Nc1cc(Oc2cncc(Cl)c2)cc([N+](=O)[O-])c1)c1nn2c(C(F)(F)F)cc(-c3cccs3)nc2c1Cl [CBK262585],94.9
10,CC1OC(n2ccc(=S)[nH]c2=O)C(O)C1O (stereo not shown) [CBK012231],103
11,O=C(c1ccccc1)c1ccccc1OCCO [CBK000728],116
12,Cc1onc(-c2ccccc2)c1C(=O)N1CCN(CCN2CCCC2)CC1 [CBK158558],98.6
13,COc1ccc(CC(=O)N2CCCC(c3nccnc3-c3cccc(C)c3)C2)cc1 (stereo not shown) [CBK286137],94.1
14,Cc1ccc(S(=O)(=O)Nc2c(C(=O)O)sc3ncccc23)cc1[N+](=O)[O-] [CBK049983],91.6
15,CCn1c(SCC(=O)Nc2ccc(OC)c(Cl)c2)nnc1-c1ccccc1O [CBK268021],101
16,O=c1[nH]ccn2nc(-c3ccc4c(c3)OCO4)cc12 [CBK288048],87.7
17,Cc1cc(C)n(CC(C)NC(=O)C(c2ccccc2)N2CCCC2)n1 (stereo not shown) [CBK281645],82.1
18,CCSCCN1CCC(Oc2nccnc2OCc2ccc(Br)cc2F)CC1 [CBK161087],98.7
19,CCOc1ccc(S(=O)(=O)N2CCCN(Cc3ccc(C#N)cc3)CC2)c2cccnc12 [CBK062759],107
20,CC(C)(C)C1CCc2c(sc(NC(=S)NC(=O)c3cc4ccccc4o3)c2C(N)=O)C1 (stereo not shown) [CBK268635],95
21,O=C(c1cscn1)N1CCC(Cc2ccccc2)CC1 [CBK200188],103
22,CC/C(=C/c1sc2ccc3ccccc3c2[n+]1CCCS(=O)(=O)[O-])SC [CBK260901],104

row,SMILES,"viability at 28.5 h, 10 µM [%]"
1,O=C(Oc1c(Cl)cc(Cl)c2cccnc12)c1cc(S(=O)(=O)N2CCCCC2)ccc1Cl [CBK264518],100
2,O=C(O)c1ccc(Cl)c2c1C1C=CCC1C(c1ccccn1)N2 (stereo not shown) [CBK287087],86.9
3,OCCOCCNc1ncnc2sc(-c3ccccc3)cc12 [CBK265951],76
4,CC(C)c1nc(CC(=O)N2CCOC(c3ccc(F)cc3)C2)cs1 (stereo not shown) [CBK305334],93.9
5,CCC(NC(=O)Nc1cc(N2CCOCC2)ccc1Cl)c1nc(C)no1 (stereo not shown) [CBK306526],87.9
6,O=C(Nc1cncc(OC2CCNCC2)n1)c1ccoc1 [CBK036366T],92
7,CCCc1ccc(S(=O)(=O)Nc2ccc(C(=O)O)cc2)cc1 [CBK034044],114
8,CCN(CC)C(=O)Cn1nc(C)n2c(cc3ccsc32)c1=O [CBK284104],97.3
9,CCN(CC)C(=O)CN1CCN(c2nccnc2OCc2ccc(Cl)c(Cl)c2)CC1 [CBK083081T],101
10,COc1ccc(C(=O)Nc2cccnc2N2CCNCC2)cc1 [CBK029421T],102
11,O=C(CN(c1ccccc1)S(=O)(=O)c1ccccc1[N+](=O)[O-])NC1CCCCC1 [CBK262328],89.3
12,Cc1ccc(C(O)CN2CCC(O)(c3ccccc3F)CC2)cc1 (stereo not shown) [CBK283310],93.8
13,CN(Cc1cccc(C#N)c1)Cc1nc2c(cnn2C)c(=O)[nH]1 [CBK305973],109
14,O=C(O)Cc1cc2c(n1Cc1ccc(F)cc1)CCCC2=O [CBK283866],93.8
15,CCSC(SCC)c1ccnn1-c1ccccc1 [CBK019332],87.1
16,O=C(O)C1CCC(N2C(=O)C3C4CCC(C4)C3C2=O)CC1 (stereo not shown) [CBK287183],82.2
17,OC(CNc1nccnc1-c1cccc(C(F)(F)F)c1)COc1ccccc1 (stereo not shown) [CBK037010],89.9
18,CC(C)N(C)C1CCN(S(=O)(=O)c2cccc([N+](=O)[O-])c2)CC1 [CBK294462],88.7
19,c1ccc(CCN2CCCN(c3ccnc(OCCN4CCOCC4)n3)CC2)nc1 [CBK083813],94.9
20,CCC(Cn1ccnc1)NS(=O)(=O)c1cc(-n2cccn2)ccc1OC (stereo not shown) [CBK307483],87.8
21,Cc1nccn1C1CCCN(C(C)C(=O)NC2(C#N)CCCCC2)C1 (stereo not shown) [CBK304194],87.3
22,NC(=O)CN1CC2(CCN(Cc3ccc(Cl)c(Cl)c3)CC2)c2ccccc21 [CBK126775],109

row,SMILES,"viability at 28.5 h, 10 µM [%]"
1,Cc1ccnc2nc(C(=O)OC(C)C(=O)c3ccc4c(c3)CCC4)nn12 (stereo not shown) [CBK304528],89.5
2,O=c1cnnc(Nc2cccc(Cl)c2Cl)[nH]1 [CBK287897],93
3,CC(O)C(=O)NS(=O)(=O)c1ccccc1 (stereo not shown) [CBK038300],104
4,Cc1cc(C)c(OCC(=O)Nc2ccc3oc(-c4cncc(Br)c4)nc3c2)c(Cl)c1 [CBK266634],100
5,CCOC(=O)c1c(-c2ccc(Cl)cc2)csc1NC(=O)CCCC(=O)O [CBK296929],91
6,CCC1=NN2C(=N)/C(=C/c3ccc(OC)cc3)C(=O)N=C2S1 [CBK101905],95.6
7,Cc1cc(C)c2c(n1)nn1c(C)c(CCC(=O)O)c(C)nc21 [CBK265892],98.2
8,NCC1OCCc2ccccc21 (stereo not shown) [CBK027717],108
9,CCOC(=O)c1nc(-c2ccccc2)sc1C(C)=O [CBK067739],98.8
10,Cc1nc2c(c(=O)[nH]1)CCN(C(=O)c1cc3c(s1)CCC3)C2 [CBK283751],105
11,COc1ccccc1-c1ccccc1CC1(C(=O)NCc2ccc(F)cc2)CCOCC1 [CBK286425],90
12,Cc1nn(C)cc1C(=O)N1CCC(c2cc3c(C)cccc3cn2)CC1 [CBK282231],103
13,COc1ccc(C(=O)Nc2ccc(S(=O)(=O)N3CCN(C)CC3)cc2)cc1 [CBK267622],92.8
14,COc1ccc(CCNC(=S)n2cc(C)cn2)cc1OC [CBK267001],89
15,c1csc(-c2nc3[nH]c4ccccc4n3n2)c1 [CBK264118],102
16,O=C1COc2ccccc2C/C=C/CC2(CCCN(C(=O)Cn3ccnc3)C2)CN1 (stereo not shown) [CBK292050],107
17,Cc1ccc(OCc2cc(-c3ccco3)on2)c([N+](=O)[O-])n1 [CBK233261],98.8
18,O=C(COC(=O)c1cc(O)nc2ccccc12)c1ccc(Br)cc1 [CBK262125],103
19,O=C(O)C(=O)N1CCN(C(=O)c2cc3ccccc3[nH]2)CC1 [CBK288433],107
20,CCc1cnc(CN(C)C2CCN(Cc3cccc(C(N)=O)c3)C2)o1 (stereo not shown) [CBK305357],90.5
